From PubChem BioAssay (NCI) come the findings set out here.

Test systems include NCI-H460 lung; HCC-2998 colon; OVCAR-5 ovarian; SNB-19 CNS; U251 CNS; KM12 colon; HOP-62 NSCLC; SK-OV-3 ovarian; HOP-92 NSCLC; NCI/ADR-RES ovarian.
Experiment in all cases: NCI anticancer screen, dose series, 48 h

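Cells were grown in 96-well plates and exposed to each compound for 48 hours at five concentrations; endpoints were interpolated linearly between bracketing concentrations, or set to the highest concentration if not reached. GI50: concentration for 50% inhibition of growth. TGI: total growth inhibition.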

In the case of `O=C(c1ccc(O)cc1O)C1C(c2ccc(O)cc2)OC(c2ccc(O)cc2)C1C(=O)c1ccc(O)cc1O` (stereo not given), the TGI in the assay with NCI-H460 lung was above 100 µM; in the assay with HCC-2998 colon, 33.3 µM; in the assay with OVCAR-5 ovarian, 29.7 µM; in the assay with SNB-19 CNS, 45.2 µM; in the assay on U251 CNS, 32.9 µM; in the assay on KM12 colon, above 100 µM. Moreover, the TGI in the assay with HOP-62 NSCLC was 22.9 µM.
With `Nc1ccc2n[se]nc2c1`, the TGI with NCI-H460 lung, in the assay with HCC-2998 colon, with OVCAR-5 ovarian, in the assay with SNB-19 CNS, with SK-OV-3 ovarian and in the assay with U251 CNS was above 100 µM each time. The TGI in the assay with KM12 colon and in the assay with HOP-62 NSCLC was above 100 µM in each case.
As for `Cc1ccc(NC(=O)CCc2nc(=S)[nH][nH]2)cc1`, the TGI with NCI-H460 lung, in the assay on OVCAR-5 ovarian, with SNB-19 CNS, in the assay with SK-OV-3 ovarian, in the assay with U251 CNS and with KM12 colon was above 100 µM throughout. In addition, the TGI with HOP-92 NSCLC and in the assay on HOP-62 NSCLC was above 100 µM each time.
Regarding `COC(=O)CCSC(=O)Nc1ccc(N=Nc2ccccc2)cc1`, the TGI with NCI-H460 lung was above 100 µM; in the assay with HCC-2998 colon, 59 µM; with OVCAR-5 ovarian, above 100 µM; in the assay with SNB-19 CNS, above 100 µM; in the assay with SK-OV-3 ovarian it was above 100 µM; in the assay with U251 CNS, above 100 µM. Besides, the TGI with KM12 colon, with HOP-92 NSCLC and in the assay on HOP-62 NSCLC was above 100 µM throughout.
Regarding `Cc1nc(N)nc(N)c1CCCCc1ccc(N)cc1`, the TGI with NCI-H460 lung turned out to be 13.6 µM; in the assay on HCC-2998 colon it was 15.7 µM; in the assay on OVCAR-5 ovarian, 23 µM; in the assay on SNB-19 CNS, 20.4 µM; with SK-OV-3 ovarian, 16.6 µM; in the assay with U251 CNS it was 17.6 µM. Further, the TGI with KM12 colon is 21.7 µM; with HOP-92 NSCLC, 18 µM; in the assay on HOP-62 NSCLC, 18.2 µM.
Consider `NC1NC=NC2C1N=CN2C1OC(CO)C2[O][Sn][O]C21` (stereo not given), for which the GI50 in the assay on NCI-H460 lung, in the assay on HCC-2998 colon, in the assay on OVCAR-5 ovarian, in the assay on SNB-19 CNS, in the assay on SK-OV-3 ovarian and in the assay with U251 CNS was above 100 µM throughout. Besides, the GI50 was above 100 µM in the assay on KM12 colon, 27.5 µM with HOP-92 NSCLC and above 100 µM in the assay with HOP-62 NSCLC. Moreover, the TGI in the assay on NCI-H460 lung, with HCC-2998 colon, in the assay with OVCAR-5 ovarian, with SNB-19 CNS, with SK-OV-3 ovarian and in the assay with U251 CNS was above 100 µM throughout. Further, the TGI in the assay on KM12 colon, in the assay on HOP-92 NSCLC and with HOP-62 NSCLC was above 100 µM each time.
Consider `COc1ccccc1NC(=O)C1=C(C)NC(C)=C(C(=O)Nc2ccccc2OC)C1c1ccccc1[N+](=O)[O-]`, for which the TGI in the assay with NCI-H460 lung was determined as 32.8 µM; with HCC-2998 colon it was 33 µM; in the assay with OVCAR-5 ovarian, 85.4 µM; in the assay on SK-OV-3 ovarian it was 68 µM; in the assay on U251 CNS it was 29.7 µM; in the assay on KM12 colon, 35 µM. Further, the TGI in the assay on HOP-92 NSCLC came out at 59.5 µM; in the assay on HOP-62 NSCLC it was 88.2 µM.
With `COc1cc[c]([Sn]([c]2ccc(OC)cc2)([c]2ccc(OC)cc2)[c]2ccc(OC)cc2)cc1`, the GI50 in the assay on NCI-H460 lung was 30.5 µM; in the assay on HCC-2998 colon, 17.8 µM; in the assay with OVCAR-5 ovarian it was 33.3 µM; with SNB-19 CNS, 28.5 µM; with SK-OV-3 ovarian, 96.5 µM; in the assay with U251 CNS, 20.8 µM. Besides, the values for the GI50 with HOP-92 NSCLC and in the assay with HOP-62 NSCLC were 4.2 µM and 81.8 µM, respectively. In addition, the TGI with NCI-H460 lung is above 100 µM; in the assay with HCC-2998 colon it was 50.5 µM; with OVCAR-5 ovarian it was above 100 µM; in the assay with SNB-19 CNS it was above 100 µM; in the assay on SK-OV-3 ovarian it was above 100 µM; with U251 CNS, 72.2 µM. Besides, the TGI in the assay with HOP-92 NSCLC is 22.8 µM; with HOP-62 NSCLC it was above 100 µM.
In the case of `NC(=O)c1ccc2c(c1)-c1nc-2nc2[n-]c(nc3nc(nc4[n-]c(n1)c1ccc(C(N)=O)cc41)-c1ccc(C(N)=O)cc1-3)c1ccc(C(N)=O)cc21.[Co+2]`, the GI50 in the assay with NCI-H460 lung, with OVCAR-5 ovarian, in the assay on SNB-19 CNS, in the assay on SK-OV-3 ovarian, in the assay with U251 CNS and in the assay with KM12 colon was above 50 µM each time. The GI50 in the assay on HOP-92 NSCLC and in the assay with HOP-62 NSCLC was above 50 µM each time. Further, the TGI with NCI-H460 lung, in the assay on OVCAR-5 ovarian, in the assay with SNB-19 CNS, with SK-OV-3 ovarian, with U251 CNS and with KM12 colon was above 50 µM each time. Besides, the TGI in the assay with HOP-92 NSCLC and with HOP-62 NSCLC was above 50 µM in each case.
On to `CC1(C)CCC(Sc2ccccc2)O1` (stereo not given), for which the TGI in the assay on NCI-H460 lung, in the assay on HCC-2998 colon, in the assay on SNB-19 CNS, in the assay on SK-OV-3 ovarian, in the assay with U251 CNS and in the assay on KM12 colon was above 100 µM each time. Moreover, the TGI in the assay on HOP-92 NSCLC and in the assay with HOP-62 NSCLC was above 100 µM throughout.
For `O=[N+]([O-])c1ccc(C2=Nc3ccccc3S(=O)C(c3ccccc3)C2)cc1` (stereo not given), the TGI with NCI-H460 lung amounted to 71 µM; in the assay on HCC-2998 colon, 34.9 µM; with OVCAR-5 ovarian, 92.8 µM; in the assay on SNB-19 CNS it was 68 µM; in the assay with SK-OV-3 ovarian it was 73.6 µM; in the assay on KM12 colon it was 41.3 µM. The compound further yielded a TGI in the assay on HOP-62 NSCLC of 84.7 µM.
For the compound `Cc1ccccc1N=Nc1c(O)ccc2ccccc12`, the TGI in the assay with OVCAR-5 ovarian, in the assay on SNB-19 CNS, with SK-OV-3 ovarian, in the assay on U251 CNS, in the assay with KM12 colon and with HOP-92 NSCLC was above 100 µM throughout. In addition, the TGI in the assay on NCI/ADR-RES ovarian and in the assay on HOP-62 NSCLC was above 100 µM in each case.
As to `C/C(=N\O)c1ccc2ccc3ccccc3c2c1`, the TGI is above 100 µM with NCI-H460 lung; above 100 µM with OVCAR-5 ovarian; above 100 µM in the assay with SNB-19 CNS; above 100 µM in the assay with SK-OV-3 ovarian; above 100 µM in the assay on U251 CNS; 45 µM in the assay with KM12 colon. Further, the TGI with NCI/ADR-RES ovarian is 85.3 µM; with HOP-62 NSCLC, above 100 µM.
